33 molecules from patent publication US20150274661A1, “INDOL-AMIDE COMPOUNDS AS BETA-AMYLOID INHBITORS” (Hoffmann-La Roche Inc., priority 2012, published 2015) can be followed below.

This test concerns Aβ42 secretion. Description: Cellular γ-secretase assay (inhibition of Aβ42 secretion). It is filed as cell-based. As to conditions: Homo sapiens, 22 h, human neuroglioma H4 cells overexpressing human APP, 22 hours incubation. On the procedure:
Cellular γ-Secretase Assay
The compounds were investigated in accordance with the test given hereinafter.
Human neuroglioma H4 cells overexpressing human APP were plated at 30,000 cells/well/200 μL in 96-well plates in IMDM media containing 10% FCS, […] Hygromycin B and incubated for 2 hours at 37° C., 5% CO2 prior to adding test compounds.
Compounds for testing were dissolved in 100% Me2SO yielding in a 10 mM stock solution. Typically 12 μL of these solutions were further diluted in 1000 μL of IMDM media (w/o FCS). Subsequent 1:1 dilutions gave a ten point dose response curve. 100 μL of each dilution was added to the cells in 96-well plates. Appropriate controls using vehicle only and reference compound were applied to this assay. The final concentration of Me2SO was 0.4%.
After incubation for 22 hours at 37° C., 5% CO2, 50 μL supernatant was transferred into round-bottom 96-well polypropylene plates for detection of Aβ42. 50 μL assay buffer (50 mM Tris/Cl, pH 7.4, 60 mM NaCl, 0.5% BSA, 1% TWEEN 20) was added to the wells followed by the addition of 100 μL of detection antibody (ruthenylated BAP15 0.0625 μg/mL in assay buffer). 50 μL of a premix of capture antibody (biotinylated 6E10 antibody, 1 μg/mL) and Streptavidin-coated magnetic beads (Dynal M-280, 0.125 mg/mL) were preincubated for 1 hour at room temperature before adding the assay plates. Assay plates were incubated on a shaker for 3 hours at room temperature and finally read in the Bioveris M8 Analyser according to the manufacturer's instructions (Bioveris).
IC50 values for inhibition of Aβ42 secretion were calculated by nonlinear regression fit analysis using XLfit 4.0 software (IDBS).

The term EC50 denotes the concentration giving half of the maximal effect. Low readings indicate an effect from little substance, high ones a need for much substance. As to `CC(C)N1CCC(c2ccc3[nH]c(C(=O)Nc4ccc(F)cc4)cc3c2)CC1` [Example 48, 5-(1-Isopropyl-piperidin-4-yl)-1H-indole-2-carboxylic acid (4-fluoro-phenyl)-amide], the response was half-maximal at 2.51 µM (EC50).

`O=C(Nc1cccc(F)c1)c1cc2cc([C@H]3CCCN(CCO)C3)ccc2[nH]1` [Example 114, (R)—N-(3-Fluorophenyl)-5-(1-(2-hydroxyethyl)piperidin-3-yl)-1H-indole-2-carboxamide]: the EC50 amounted to 0.273 µM.

Turning to `N#Cc1cc(F)cc(NC(=O)c2cc3cc(C4CCNC4)ccc3[nH]2)c1` (stereo not drawn) [Example 9, N-(3-Cyano-5-fluorophenyl)-5-(pyrrolidin-3-yl)-1H-indole-2-carboxamide], the EC50 is 1.27 µM.

`O=C(Nc1ccc(F)cc1)c1cc2cc(C3CCN(C(=O)c4ccccc4)CC3)ccc2[nH]1` [Example 35, 5-(1-Benzoyl-piperidin-4-yl)-1H-indole-2-carboxylic acid (4-fluoro-phenyl)-amide] registered an EC50 of 1.39 µM.

Molecule `CC(C)N1CCC(c2ccc3[nH]c(C(=O)Nc4ccccc4F)cc3c2)CC1` [Example 24, 5-(1-Isopropyl-piperidin-4-yl)-1H-indole-2-carboxylic acid (2-fluoro-phenyl)-amide] had an EC50 of 19.4 µM.

Molecule `O=C(Nc1cccc(F)c1)c1cc2cc(C3CC(=O)N(Cc4ccccc4)C3=O)ccc2[nH]1` (stereo not drawn) [Example 17, 5-(1-Benzyl-2,5-dioxopyrrolidin-3-yl)-N-(3-fluorophenyl)-1H-indole-2-carboxamide] yielded an EC50 of 8.46 µM.

In the case of `CC(C)N1CCC(c2ccc3[nH]c(C(=O)Nc4cccc(Cl)c4)cc3c2)CC1` [Example 23, 5-(1-Isopropyl-piperidin-4-yl)-1H-indole-2-carboxylic acid (3-chloro-phenyl)-amide], the EC50 was 0.897 µM.

The molecule `C[C@@H](c1ccc2[nH]c(C(=O)Nc3cc(F)cc(F)c3)cc2c1)[C@@H]1CCN(CC(F)(F)F)C1` [Example 120, N-(3,5-Difluorophenyl)-5-((R)-1-((S)-1-(2,2,2-trifluoroethyl)pyrrolidin-3-yl)ethyl)-1H-indole-2-carboxamide] gave an EC50 of 7.42 µM.

`C=C(c1ccc2[nH]c(C(=O)Nc3cc(F)cc(F)c3)cc2c1)C1CCN(Cc2ccccc2)C1` (stereo not drawn) [Example 91, 5-(1-(1-Benzylpyrrolidin-3-yl)vinyl)-N-(3,5-difluorophenyl)-1H-indole-2-carboxamide] returned an EC50 of 1.49 µM.

For `CC(C)N1CCC[C@@H](c2ccc3[nH]c(C(=O)Nc4cccc(F)c4)cc3c2)C1` [Example 111, 5-((S)-1-Isopropyl-piperidin-3-yl)-1H-indole-2-carboxylic acid (3-fluoro-phenyl)-amide], the EC50 was determined as 0.876 µM.

Take `CC(C)N1CCCC(c2ccc3[nH]c(C(=O)Nc4cc(F)cc(F)c4)cc3c2)C1` (stereo not drawn) [Example 21, 5-(1-Isopropyl-piperidin-3-yl)-1H-indole-2-carboxylic acid (3,5-difluoro-phenyl)-amide]: the half-maximal effective concentration (EC50) stood at 0.177 µM.

Take `CC(C)N1CC=C(c2ccc3[nH]c(C(=O)Nc4cc(F)cc(F)c4)cc3c2)CC1` [Example 87, 5-(1-Isopropyl-1,2,3,6-tetrahydro-pyridin-4-yl)-1H-indole-2-carboxylic acid (3,5-difluoro-phenyl)-amide]: the EC50 is 1.29 µM.

The molecule `C=CCCN1CCC(c2ccc3[nH]c(C(=O)Nc4cncc(F)c4)cc3c2)C1` (stereo not drawn) [Example 78, 5-(1-(But-3-enyl)pyrrolidin-3-yl)-N-(5-fluoropyridin-3-yl)-1H-indole-2-carboxamide] registered an EC50 of 0.927 µM.

Consider `CC(CCN1CCCCC1)c1ccc2[nH]c(C(=O)Nc3cc(F)cc(F)c3)cc2c1` (stereo not drawn) [Example 98, N-(3,5-Difluorophenyl)-5-(4-(piperidin-1-yl)butan-2-yl)-1H-indole-2-carboxamide], for which the EC50 was 1.04 µM.

With `CC(c1ccc2[nH]c(C(=O)Nc3cc(F)cc(F)c3)cc2c1)C1CCN(CC#N)C1` (stereo not drawn) [Example 94, 5-(1-(1-(Cyanomethyl)pyrrolidin-3-yl)ethyl)-N-(3,5-difluorophenyl)-1H-indole-2-carboxamide], the EC50 came to 1.34 µM.

Regarding `CN1CCC(c2ccc3[nH]c(C(=O)Nc4cccc(F)c4)cc3c2)C1` (stereo not drawn) [Example 4, N-(3-Fluorophenyl)-5-(1-methylpyrrolidin-3-yl)-1H-indole-2-carboxamide], the EC50 came out at 0.402 µM.

`CC(=O)N1CCC(C(C)c2ccc3[nH]c(C(=O)Nc4cc(F)cc(F)c4)cc3c2)C1` (stereo not drawn) [Example 95, 5-(1-(1-Acetylpyrrolidin-3-yl)ethyl)-N-(3,5-difluorophenyl)-1H-indole-2-carboxamide] had an EC50 of 2.48 µM.

Molecule `CC(c1ccc2[nH]c(C(=O)Nc3cc(F)cc(F)c3)cc2c1)C1CCN(CC(F)(F)F)C1` (stereo not drawn) [Example 96, N-(3,5-Difluorophenyl)-5-(1-(1-(2,2,2-trifluoroethyl)pyrrolidin-3-yl)ethyl)-1H-indole-2-carboxamide] returned an EC50 of 7.72 µM.

`CC(=O)N1CCC[C@H](c2ccc3[nH]c(C(=O)Nc4cc(F)cc(F)c4)cc3c2)C1` [Example 112, 5-((R)-1-Acetyl-piperidin-3-yl)-1H-indole-2-carboxylic acid (3,5-difluoro-phenyl)-amide] came in with an EC50 of 0.226 µM.

`CC(C)N1CCCC(c2ccc3[nH]c(C(=O)Nc4cc(F)cc(C#N)c4)cc3c2)C1` (stereo not drawn) [Example 31, 5-(1-Isopropyl-piperidin-3-yl)-1H-indole-2-carboxylic acid (3-cyano-5-fluoro-phenyl)-amide] registered an EC50 of 2.38 µM.

For `O=C(Nc1cccc(F)c1)c1cc2cc(C3CCN(CC(F)(F)F)C3)ccc2[nH]1` (stereo not drawn) [Example 15, N-(3-Fluorophenyl)-5-(1-(2,2,2-trifluoroethyl)pyrrolidin-3-yl)-1H-indole-2-carboxamide], the EC50 turned out to be 1.25 µM.

The molecule `O=C(Nc1ccc(F)cc1)c1cc2cc(C3CCN(CCc4ccccc4)CC3)ccc2[nH]1` [Example 45, 5-(1-Phenethyl-piperidin-4-yl)-1H-indole-2-carboxylic acid (4-fluoro-phenyl)-amide] came in with an EC50 of 12.9 µM.

On to `CC(c1ccc2[nH]c(C(=O)Nc3cc(F)cc(F)c3)cc2c1)C1CCNC1` (stereo not drawn) [Example 92, N-(3,5-Difluorophenyl)-5-(1-(pyrrolidin-3-yl)ethyl)-1H-indole-2-carboxamide], for which the EC50 turned out to be 1.18 µM.

In turn, `CC(C)OC(=O)N1CCC(c2ccc3[nH]c(C(=O)Nc4cncc(F)c4)cc3c2)C1` (stereo not drawn) [Example 77, isopropyl 3-(2-(5-fluoropyridin-3-ylcarbamoyl)-1H-indol-5-yl)pyrrolidine-1-carboxylate] yielded an EC50 of 3.76 µM.

In turn, `CC(C)N1CCC(Nc2ccc3[nH]c(C(=O)Nc4ccc(F)c(F)c4)cc3c2)CC1` [Example 65, 5-(1-Isopropyl-piperidin-4-ylamino)-1H-indole-2-carboxylic acid (3,4-difluoro-phenyl)-amide] displayed an EC50 of 2.95 µM.

`COC(=O)CN1CCC(c2ccc3[nH]c(C(=O)Nc4ccc(F)cc4)cc3c2)CC1` [Example 43, {4-[2-(4-Fluoro-phenylcarbamoyl)-1H-indol-5-yl]-piperidin-1-yl}-acetic acid methyl ester] had an EC50 of 2.47 µM.

`CCC(=O)N1CCC(c2ccc3[nH]c(C(=O)Nc4ccc(F)cc4)cc3c2)CC1` [Example 44, 5-(1-Propionyl-piperidin-4-yl)-1H-indole-2-carboxylic acid (4-fluoro-phenyl)-amide] gave a 50% effective concentration (EC50) of 4.38 µM.

Regarding `O=C(Nc1cccc(F)c1)c1cc2cc(C3CCCN(CC(F)(F)F)C3)ccc2[nH]1` (stereo not drawn) [Example 73, N-(3-Fluorophenyl)-5-(1-(2,2,2-trifluoroethyl)piperidin-3-yl)-1H-indole-2-carboxamide], the response was half-maximal at 9.29 µM (EC50).

With `O=C(Nc1cccc(F)c1)c1cc2cc(C3CCN(Cc4ccccc4)C3)ccc2[nH]1` (stereo not drawn) [Example 3, 5-(1-Benzylpyrrolidin-3-yl)-N-(3-fluorophenyl)-1H-indole-2-carboxamide], a half-maximal response (EC50) required 1.24 µM.

On to `CC(C)C(=O)N1CC[C@H](c2ccc3[nH]c(C(=O)Nc4cc(F)cc(F)c4)cc3c2)C1` [Example 105, 5-((R)-1-Isobutyryl-pyrrolidin-3-yl)-1H-indole-2-carboxylic acid (3,5-difluoro-phenyl)-amide], for which the EC50 stood at 1.21 µM.

`O=C(Nc1cccc(F)c1)c1cc2cc(C3CCCN(CCO)C3)ccc2[nH]1` (stereo not drawn) [Example 67, N-(3-Fluorophenyl)-5-(1-(2-hydroxyethyl)piperidin-3-yl)-1H-indole-2-carboxamide] yielded an EC50 of 0.657 µM.

On to `C[C@@H](c1ccc2[nH]c(C(=O)Nc3cc(F)cc(F)c3)cc2c1)[C@H]1CCN(CC(F)(F)F)C1` [Example 121, N-(3,5-Difluorophenyl)-5-((R)-1-((R)-1-(2,2,2-trifluoroethyl)pyrrolidin-3-yl)ethyl)-1H-indole-2-carboxamide], for which a half-maximal response (EC50) required 7.48 µM.

In the case of `CC(c1ccc2[nH]c(C(=O)Nc3cc(F)cc(F)c3)cc2c1)C1CCN(C(C)C)C1` (stereo not drawn) [Example 93, N-(3,5-Difluorophenyl)-5-(1-(1-isopropylpyrrolidin-3-yl)ethyl)-1H-indole-2-carboxamide], the midpoint of the response, the EC50, lay at 1.19 µM.
